Source: BindingDB's records for doi:10.1021/jm9802158 (Upjohn, 1998)

Key:
[1] = target: T1, Dimer of Gag-Pol polyprotein [489-587] (Human immunodeficiency virus 1, UniProt P12497); test: Protease Inhibition Assay; settings: pH 5; 22 °C
T1 construct: 489-587
From the text: (§1) HIV-1 protease was purified and refolded from E. coli inclusion bodies. The substrate used spans the p17-p24 processing site (R-V-S-Q-N-Y-P-I-V-Q-N-K) and was derivatized with biotin and fluorescein isothiocyanate (FITC) at the amino and carboxy termini. In the presence of HIV-l protease, the substrate is rapidly cleaved into two parts. The biotinylated amino terminal fragment binds to the avidin beads while the FITC-containing carboxy1 terminal fragment is removed through the membrane. […] The bound fluorescence is obtained by processing on an IDEXX Screen Machine. Determination of Ki values with this assay requires analysis under conditions in which substrate concentration resides substantially below Km and the inhibitor concentrations greatly exceeds the Ki value and the enzyme concentration.

[2] = target: T2, Dimer of Gag-Pol polyprotein [489-587] (Human immunodeficiency virus 1, UniProt P04585); test: Protease Inhibition Assay; settings: pH 5; 22 °C
T2 construct: 489-587
From the text: as §1

SMILES	Ki [1] [nM]	Ki [2] [nM]
CCCC1(CCc2ccccc2)CC(=O)C(C(c2cccc(NS(=O)(=O)c3cn(C)cn3)c2)C2CC2)C(=O)O1 (stereo not given) [N-[3-[1-(5,6-Dihydro-4-hydroxy-2-oxo-6-phenethyl-6-propyl-2H-pyran-3-yl)cyclopropylmethyl]phenyl]-1-methyl-1H-imidazole-4-sulfonamide]	0.71	–
CCCC1(CCc2ccc(F)cc2)CC(=O)C(C(CC)c2cccc(NS(=O)(=O)c3cn(C)cn3)c2)C(=O)O1 (stereo not given) [N-[3-{1-(5,6-Dihydro-4-hydroxy-2-oxo--6-(2-(4-fluorophenyl)ethyl)-6-propyl-2H-pyran-3-yl)propyl}phenyl]-1-methyl-1H-imidazole-4-sulfonamide]	3	–
CCCC1(CCc2ccccc2)CC(=O)C(C(c2cccc(NS(=O)(=O)c3ccc(C#N)cc3)c2)C(C)(C)C)C(=O)O1 (stereo not given) [4-cyano-N-(3-{1-[4-hydroxy-2-oxo-6-(2-phenylethyl)-6-propyl-5,6-dihydro-2H-pyran-3-yl]-2,2-dimethylpropyl}phenyl)benzene-1-sulfonamide]	12	–
CCCC1(CCc2ccccc2)CC(=O)C(C(CC)c2cccc(NS(=O)(=O)c3ccc(C#N)cc3)c2)C(=O)O1 (stereo not given) [4-cyano-N-(3-{1-[4-hydroxy-2-oxo-6-(2-phenylethyl)-6-propyl-5,6-dihydro-2H-pyran-3-yl]propyl}phenyl)benzene-1-sulfonamide]	8.2	–
CCCC1(CCc2ccccc2)CC(=O)C(C(CC)c2cccc(NS(=O)(=O)CCC)c2)C(=O)O1 (stereo not given) [N-(3-{1-[4-hydroxy-2-oxo-6-(2-phenylethyl)-6-propyl-5,6-dihydro-2H-pyran-3-yl]propyl}phenyl)propane-1-sulfonamide]	> 1000	–
CCCC1(CCc2ccccc2)CC(=O)C(C(c2cccc(NS(=O)(=O)c3cn(C)cn3)c2)C(C)(C)C)C(=O)O1 (stereo not given) [N-[3-{1-(5,6-Dihydro-4-hydroxy-2-oxo-6-phenethyl-6-propyl-2H-pyran-3-yl)-2,2-dimethylpropyl)phenyl]-1-methyl-1H-imidazole-4-sulfonamide]	1.2	–
CCCC1(CCc2ccccc2)CC(=O)C(C(c2cccc(NS(=O)(=O)c3ccc(C#N)cn3)c2)C(C)(C)C)C(=O)O1 (stereo not given) [N-(3-[1-(5,6-Dihydro-4-hydroxy-2-oxo-6-phenethyl-6-propyl-2H-pyran-3-yl)-2,2-dimethylpropyl]phenyl)-5-cycano-2-pyridinesulfonamide]	1.9	–
CCCC1(CCC)CC(=O)C(C(CC)c2cccc(NS(=O)(=O)c3cn(C)cn3)c2)C(=O)O1 (stereo not given) [N-[3-[1-(5,6-Dihydro-4-hydroxy-2-oxo-6,6-dipropyl-2H-pyran-3-yl)propyl]phenyl]-1-methyl-1H-imidazolesulfonamide]	1.8	–
CCCC1(CCc2ccccc2)CC(=O)C(C(c2cccc(NS(=O)(=O)c3ccc([N+](=O)[O-])cn3)c2)C(C)(C)C)C(=O)O1 (stereo not given) [N-(3-{1-[4-hydroxy-2-oxo-6-(2-phenylethyl)-6-propyl-5,6-dihydro-2H-pyran-3-yl]-2,2-dimethylpropyl}phenyl)-5-nitropyridine-2-sulfonamide]	2.3	–
CCCC1(CCC)CC(=O)C(C(c2cccc(NS(=O)(=O)c3cn(C)cn3)c2)C(C)(C)C)C(=O)O1 (stereo not given) [N-[3-{1-(5,6-Dihydro-4-hydroxy-2-oxo-6,6-dipropyl-2H-pyran-3-yl)-2,2-dimethylpropyl)phenyl]-1-methyl-1H-imidazole-4-sulfonamide]	0.87	–
CCC(c1cccc(NS(=O)(=O)c2cn(C)cn2)c1)C1C(=O)CC(CCC2CC2)(CCC2CC2)OC1=O (stereo not given) [N-(3-{1-[6,6-bis(2-cyclopropylethyl)-4-hydroxy-2-oxo-5,6-dihydro-2H-pyran-3-yl]propyl}phenyl)-1-methyl-1H-imidazole-4-sulfonamide]	1.7	–
CCCC1(CCc2ccccc2)CC(=O)C(C(c2cccc(NS(=O)(=O)c3ccc(N)cn3)c2)C(C)(C)C)C(=O)O1 (stereo not given) [5-amino-N-(3-{1-[4-hydroxy-2-oxo-6-(2-phenylethyl)-6-propyl-5,6-dihydro-2H-pyran-3-yl]-2,2-dimethylpropyl}phenyl)pyridine-2-sulfonamide]	–	0.2
CCC(c1cccc(NS(=O)(=O)c2cn(C)cn2)c1)C1C(=O)CC(CCc2ccccc2)(CCc2ccccc2)OC1=O (stereo not given) [N-(3-{1-[4-hydroxy-2-oxo-6,6-bis(2-phenylethyl)-5,6-dihydro-2H-pyran-3-yl]propyl}phenyl)-1-methyl-1H-imidazole-4-sulfonamide]	1	–
CCC(c1cccc(NS(=O)(=O)c2cn(C)cn2)c1)C1C(=O)CC2(OC1=O)C1CC3CC(C1)CC2C3 (stereo not given) [N-[3-(1-{4'-hydroxy-3',6'-dihydrospiro[adamantane-2,2'-pyran]-6'-one}propyl)phenyl]-1-methyl-1H-imidazole-4-sulfonamide]	23	–
CCCC1(CCc2ccccc2)CC(=O)C(C(c2cccc(NS(=O)(=O)c3ccc(C(F)(F)F)cn3)c2)C(C)(C)C)C(=O)O1 (stereo not given) [N-(3-[1-(5,6-Dihydro-4-hydroxy-2-oxo-6-phenethyl-6-propyl-2H-pyran-3-yl)-2,2-dimethylpropyl]phenyl)-5-trifluoromethyl-2-pyridinesulfonamide]	4.3	–
CCCC1(CCc2ccccc2)CC(=O)C(Cc2cccc(NS(=O)(=O)c3cn(C)cn3)c2)C(=O)O1 (stereo not given) [N-(3-[1-(5,6-Dihydro-4-hydroxy-2-oxo-6-phenethyl-6-propyl-2H-pyran-3-yl)methyl]phenyl)-1-methyl-1H-imidazole-4-sulfonamide]	13	–
CCCC1(CCc2ccccc2)CC(=O)C(C(CC)c2cccc(NS(=O)(=O)c3ccc(C#N)cn3)c2)C(=O)O1 (stereo not given) [5-cyano-N-(3-{1-[4-hydroxy-2-oxo-6-(2-phenylethyl)-6-propyl-5,6-dihydro-2H-pyran-3-yl]propyl}phenyl)pyridine-2-sulfonamide]	–	0.1
CCC(c1cccc(NS(=O)(=O)c2cn(C)cn2)c1)C1C(=O)CC(CC(C)C)(CC(C)C)OC1=O (stereo not given) [N-(3-{1-[4-hydroxy-6,6-bis(2-methylpropyl)-2-oxo-5,6-dihydro-2H-pyran-3-yl]propyl}phenyl)-1-methyl-1H-imidazole-4-sulfonamide]	3	–
CCC(c1cccc(NS(=O)(=O)c2cn(C)cn2)c1)C1C(=O)CC(COCCOCCOC)(COCCOCCOC)OC1=O (stereo not given) [N-[3-{1-(5,6-Dihydro-4-hydroxy-2-oxo--6,6-bis((2-(2-methoxyethoxy)ethoxy)methyl)-2H-pyran-3-yl)propyl}phenyl]-1-methyl-1H-imidazole-4-sulfonamide]	28	–
CCCC1(CCC)CC(=O)C(C(c2cccc(NS(=O)(=O)c3cn(C)cn3)c2)C2CC2)C(=O)O1 (stereo not given) [N-[3-[1-(5,6-Dihydro-4-hydroxy-2-oxo-6,6-dipropyl-2H-pyran-3-yl)cyclopropylmethyl]phenyl]-1-methyl-1H-imidazolesulfonamide]	0.52	–
